Our source for the IC50 values is US20260055120A1, “Bicyclic pyrimidinones as inhibitors of NOX4” (Boehringer Ingelheim International GmbH, priority 2024, published 2026).

In test [1] the target is human NOX4 (hNOX4) (Homo sapiens (Human), UniProt Q9NPH5). The experiment in a line: NOX4 inhibition assay (HyPerBlu). In kind it is cell-based. The conditions noted are these: HEK293 cells overexpressing hNOX4, HyPerBlu.
Protocol: NOX4 inhibition is assessed utilizing HEK293 cells stably overexpressing human NOX4 (hNOX4), generating constitutively high levels of hydrogen peroxide (H2O2). Cells are cultured in the Dulbecco's Modified Eagle Medium (DMEM) media containing 4.5 g/L glucose supplemented with 10% fetal calf serum and 250 μg/ml Zeocin in an incubator at 37° C. with 5% CO2. For the assay, cells are seeded in 384 well plates. […] After incubation Lumigen HyPerBlu™ is added and cells are incubated for additional 30 min at 24° C. in a humidified incubator. Next, luminescence is measured using an Envision Multimode Plate reader to determine levels of produced H2O2 in the wells.
The target of test [2] is NOX4 (Homo sapiens (Human), UniProt Q9NPH5). The following applies: modified human embryonic kidney (HEK) cells, Amplex Red as detecting reagent; read-out: NOX4 IC50 as disclosed in WO2016207785; cited from earlier work.

SMILES strings stand for the structures.

Chain of human NOX4 (hNOX4) (Q9NPH5 whole entry): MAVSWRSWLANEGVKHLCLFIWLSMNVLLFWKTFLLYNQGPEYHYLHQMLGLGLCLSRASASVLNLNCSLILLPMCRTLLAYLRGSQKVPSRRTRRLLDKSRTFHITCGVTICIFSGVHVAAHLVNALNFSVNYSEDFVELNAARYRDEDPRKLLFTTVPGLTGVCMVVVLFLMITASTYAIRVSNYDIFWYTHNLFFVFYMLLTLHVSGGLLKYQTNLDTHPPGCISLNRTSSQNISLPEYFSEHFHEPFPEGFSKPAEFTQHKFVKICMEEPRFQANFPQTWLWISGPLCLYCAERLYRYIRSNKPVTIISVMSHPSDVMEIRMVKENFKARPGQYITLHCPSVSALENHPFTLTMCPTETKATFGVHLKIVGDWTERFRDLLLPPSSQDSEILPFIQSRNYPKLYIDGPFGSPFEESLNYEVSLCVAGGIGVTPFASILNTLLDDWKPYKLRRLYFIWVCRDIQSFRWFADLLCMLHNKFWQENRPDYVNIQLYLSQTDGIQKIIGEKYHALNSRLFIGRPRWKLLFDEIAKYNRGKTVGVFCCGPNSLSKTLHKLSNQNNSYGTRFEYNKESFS
Chain of human NOX4 (hNOX4) (P13498 2-195 partner): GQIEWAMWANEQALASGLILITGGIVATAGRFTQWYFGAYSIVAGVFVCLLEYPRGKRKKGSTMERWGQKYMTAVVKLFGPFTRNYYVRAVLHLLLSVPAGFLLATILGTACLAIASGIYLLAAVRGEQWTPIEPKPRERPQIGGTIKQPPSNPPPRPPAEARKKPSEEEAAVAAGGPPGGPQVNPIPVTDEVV
Chain of NOX4 (Q9NPH5 whole entry, species assumed): as the sequence (Q9NPH5 whole entry) above
Chain of NOX4 (P13498 2-195 partner, species assumed): as the sequence (P13498 2-195 partner) above

Usually IC50 stands for the concentration that inhibits the measured activity by half. The compound `O=c1c2ncccc2nc(SCc2ccccc2F)n1-c1ccc(Cl)cc1` [WO2005049613 example 59] displayed an IC50 in test [1] of 79 µM.
As to `O=C(Nc1ccc2oc(N3CCC34COC4)nc2c1)c1ccc2c(c1)CCO2` [WO2016207785 example 15], the IC50 in test [2] is 0.4 µM.
